This passage reports IC50, Drug uptake and EC50 results from ChEMBL document CHEMBL4028893, “Discovery and Optimization of Potent, Cell-Active Pyrazole-Based Inhibitors of Lactate Dehydrogenase (LDH)” (J Med Chem, 2017).

Molecules are shown by their SMILES.

A word on the IC50: it is the point on the concentration scale where inhibition reaches its midpoint. Broadly, the EC50 is the midpoint of the concentration-response curve. Higher therefore signals lower potency in that assay.

Series [1] has as its system A673. The series can be described thus: Cytotoxicity against human A673 cells after 48 hrs by CellTiter-Glo assay. The conditions noted are these: A673, 48 h. For orientation: In ATP-based viability assays light output follows the ATP content of the culture.
Series [2] is described as follows: Inhibition of pig heart MDH using malic acid as substrate preincubated for 10 mins followed by substrate addition measured up to 5 mins by resorufin-based fluorescence assay. Further details: species or system Sus scrofa; call rule not given here.
In series [3] the target is L-lactate dehydrogenase B chain (Homo sapiens, UniProt P07195). The series can be described thus: Inhibition of human erythrocytes LDHB using sodium pyruvate as substrate after 5 mins in presence of […] by diaphorase/resazurin based fluorescence assay. A general note: The colour change of resazurin is a common sign of viable cells or microbes.
Series [4] has as its target Isocitrate dehydrogenase [NADP] cytoplasmic (Homo sapiens, UniProt O75874). The series can be described thus: Inhibition of wild type IDH1 (unknown origin) using isocitrate as substrate preincubated for 30 mins followed by substrate addition in presence of NADP+ measured up to 5 mins by resorufin-based fluorescence assay.
The nature of series [5]: Drug level in human A673 cells by LC-MS/MS analysis. Format: ADME, cell-based.
A short description of series [6]: Drug level in human MIAPaCa2 cells by LC-MS/MS analysis. Format: ADME, cell-based. The conditions noted are these: mia paca-2.
In series [7] the target is T1, L-lactate dehydrogenase A chain (Homo sapiens, UniProt P00338).
Description: Inhibition of human liver LDHA using sodium pyruvate as substrate after 5 mins in presence of NAPDH and in absence of EDTA by diaphorase/resazurin based fluorescence assay
Series [8] concerns the target T1, L-lactate dehydrogenase A chain. This is another data set of the same source.
Description: Inhibition of human liver LDHA using sodium pyruvate as substrate after 5 mins in presence of NAPDH and EDTA by diaphorase/resazurin based fluorescence assay
Series [9] concerns A673. The series can be described thus: Cytotoxicity against human A673 cells assessed as long term cell growth inhibition measured every 4 hrs for 120 hrs by incucyte zoom live cell analysis. The format is functional, cell-based.
Series [10] deals with T2, L-lactate dehydrogenase (Homo sapiens, UniProt V9HWB9). The series can be described thus: Inhibition of LDH in human MIAPaCa2 cells assessed as reduction in lactate production preincubated for 2 hrs measured after 30 mins by high throughput fluorescence assay. The format is cell-based.
Series [11] deals with T2, L-lactate dehydrogenase. The experiment in a line: Inhibition of LDH in human A673 cells assessed as reduction in lactate production preincubated for 2 hrs measured after 30 mins by high throughput fluorescence assay. The format is cell-based.
Series [12] relates to MIA PaCa-2. The experiment in a line: Cytotoxicity against human MIAPaCa2 cells after 48 hrs by CellTiter-Glo assay. The conditions noted are these: MIA PaCa-2, 48 h.
The test system of series [13] is MIA PaCa-2. The experiment in a line: Cytotoxicity against human MIAPaCa2 cells assessed as long term cell growth inhibition measured every 4 hrs for 120 hrs by incucyte zoom live cell analysis. Format: functional, cell-based.
Series [14] has as its target T1, L-lactate dehydrogenase A chain. The source holds these as a separate data set.

Sequence of Isocitrate dehydrogenase [NADP] cytoplasmic (O75874 whole entry): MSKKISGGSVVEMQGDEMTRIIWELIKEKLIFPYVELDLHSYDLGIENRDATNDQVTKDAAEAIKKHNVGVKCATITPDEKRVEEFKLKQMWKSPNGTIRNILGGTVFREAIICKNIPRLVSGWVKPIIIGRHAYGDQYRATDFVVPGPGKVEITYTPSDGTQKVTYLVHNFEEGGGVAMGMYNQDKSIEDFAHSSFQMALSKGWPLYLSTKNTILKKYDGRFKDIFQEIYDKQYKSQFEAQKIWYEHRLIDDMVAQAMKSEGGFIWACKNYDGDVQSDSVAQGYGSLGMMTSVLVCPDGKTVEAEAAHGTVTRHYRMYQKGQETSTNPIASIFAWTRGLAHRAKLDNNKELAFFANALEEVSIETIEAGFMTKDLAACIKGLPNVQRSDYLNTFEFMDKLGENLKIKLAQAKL
Sequence of L-lactate dehydrogenase B chain (P07195 whole entry): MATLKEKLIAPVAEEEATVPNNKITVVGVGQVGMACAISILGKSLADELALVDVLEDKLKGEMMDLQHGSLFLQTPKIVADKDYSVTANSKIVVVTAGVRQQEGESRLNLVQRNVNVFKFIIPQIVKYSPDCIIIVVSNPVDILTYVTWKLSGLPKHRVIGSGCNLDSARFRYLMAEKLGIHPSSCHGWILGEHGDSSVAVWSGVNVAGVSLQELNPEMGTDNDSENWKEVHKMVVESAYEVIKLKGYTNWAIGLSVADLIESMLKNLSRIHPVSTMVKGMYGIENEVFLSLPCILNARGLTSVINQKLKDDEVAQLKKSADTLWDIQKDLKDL

As for `NS(=O)(=O)c1ccc(Cc2cn(-c3nc(C(=O)O)cs3)nc2-c2ccc(F)c(F)c2)cc1`, the 50% inhibitory concentration (IC50) in the series on A673 [1] was more than 57 µM; in series [2], more than 57 µM; in [3] it was 0.129 µM; in series [4], more than 57 µM; in series [7], 0.095 µM; in [8], 0.095 µM. For the same compound, the Drug uptake entry in series [5] and in series [6] was “Active” throughout.
For `NS(=O)(=O)c1ccc(Cc2c(-c3ccccc3)nn(-c3nc(C(=O)O)cs3)c2-c2ccncc2)cc1`, the IC50 was more than 57 µM in series [2]; 2.82 µM in [3]; more than 57 µM in series [4]; 6.23 µM in series [7]; 6.23 µM in series [8]. The Drug uptake entry in [5] and in series [6] was “Active” in each case.
`NS(=O)(=O)c1ccc(Cc2cn(-c3nc(C(=O)O)cs3)nc2-c2ccccc2)cc1`: the IC50 in series [2] was more than 57 µM; in series [4], more than 57 µM; in series [7], 0.177 µM; in [8], 0.176 µM. Further, the Drug uptake result in series [5] and in series [6] was “Active” throughout.
Take `COc1ncc(-c2ccc3c(Nc4cc(Oc5cc(F)cc(F)c5)cc(C(=O)O)c4)c(S(=O)(=O)NC4CC4)cnc3c2)c(OC)n1`: the IC50 with A673 [1] was more than 57 µM; in the series on A673 [9], 0.84 µM; at L-lactate dehydrogenase [10] it was 12.6 µM; in series [2] it was 37.8 µM; in [4], more than 57 µM; on L-lactate dehydrogenase [11], 14.5 µM. In addition, the values for the IC50 with MIA PaCa-2 [12] and in the series on MIA PaCa-2 [13] were 28.4 µM and 1.37 µM, respectively. Moreover, the Drug uptake result in series [5] and in series [6] was “Active” in each case.
With `NS(=O)(=O)c1ccc(Cc2c(-c3cccc(Br)c3)nn(-c3nc(C(=O)O)cs3)c2O)cc1`, the IC50 was 1.51 µM in series [3] and more than 57 µM in series [4]. Besides, the Drug uptake entry in series [5] and in series [6] was “Active” throughout.
Take `Cc1nc2ccc(NC(=O)CCNC(=O)CCCc3ccc(CC(C(=O)O)C(=O)O)cc3)cc2s1`: the IC50 is more than 20 µM in the series with A673 [9]; more than 57 µM in series [2]; 9.2 µM in series [3]; more than 57 µM in [4]; more than 20 µM in the series on MIA PaCa-2 [13]; 1.34 µM in [8]. Also, the Drug uptake result in series [5] and in series [6] was “Active” in each case. The compound further registered an EC50 in series [14] of 1.6 µM.
Turning to `NS(=O)(=O)c1ccc(Cc2c(-c3cccc(-c4ccccc4)c3)nn(-c3nc(C(=O)O)cs3)c2O)cc1`, the IC50 in [2] was more than 57 µM; in series [4] it was 47.4 µM. Further, the Drug uptake result in series [5] and in series [6] was “Active” in each case.
As for `NS(=O)(=O)c1ccc(Cc2c(-c3ccc(F)c(F)c3)nn(-c3nc(C(=O)O)cs3)c2O)cc1`, the IC50 (with A673 [1]; in series [2]; in series [4]; in the series with MIA PaCa-2 [12]) was more than 57 µM each time. The Drug uptake result in [5] and in series [6] was “Active” throughout.
